Source: publication PMC11483378, “Triazole-Based Thiamine Analogues as Inhibitors of Thiamine Pyrophosphate-Dependent Enzymes: 1,3-Dicarboxylate for Metal Binding” (ACS Omega, 2024)

Assays:
Porcine PDH E1 = target: T1, Porcine PDH E1 (Sus scrofa, UniProt P29804); assay: Porcine PDH E1 inhibitory activity assay (DCPIP reduction); format: biochemical
T1 sequence (P29804 31-390): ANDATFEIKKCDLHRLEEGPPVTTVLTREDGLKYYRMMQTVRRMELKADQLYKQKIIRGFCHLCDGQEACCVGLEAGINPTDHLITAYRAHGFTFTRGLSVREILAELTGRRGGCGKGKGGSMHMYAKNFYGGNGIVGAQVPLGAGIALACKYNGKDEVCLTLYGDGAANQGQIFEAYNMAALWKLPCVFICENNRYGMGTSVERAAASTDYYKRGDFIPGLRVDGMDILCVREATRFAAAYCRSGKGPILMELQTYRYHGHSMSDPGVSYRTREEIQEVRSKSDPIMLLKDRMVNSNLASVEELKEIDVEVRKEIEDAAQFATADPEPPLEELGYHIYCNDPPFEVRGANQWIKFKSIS
Method: Porcine PDH E1 was purchased from Sigma. Porcine PDH E1 activity was determined by monitoring 2,6-dichlorophenolindophenol (DCPIP) reduction at 600 nm using a microplate reader (CLARIOstar) and conducted as described[5] with some modifications. […] The reaction buffer (50 mM KH2PO4 and 1 mM MgCl2, pH 7) contained thiamine pyrophosphate (TPP) at specified concentrations, 0.25 mM DCPIP, and 2 mg/mL porcine PDH E1. The reaction mixture was preincubated at 37 °C with the inhibitor for 30 min, and then the reaction was initiated by adding pyruvate to a final concentration of 50 mM. To determine the half-maximal inhibitory concentration (IC50), the TPP concentration was set at 60 μM with varying inhibitor concentrations. Specific activity was calculated using the molar extinction coefficient of DCPIP, 21 mM^–1 cm^–1.[28] The IC50 values were calculated from nonlinear regression curve fitting using GraphPad Prism.
Porcine PDH E1 inhibitory activity assay. Porcine PDH E1 was purchased from Sigma. Porcine PDH E1 activity was determined by monitoring 2,6-dichlorophenolindophenol (DCPIP) reduction at 600 nm using a microplate reader (CLARIOstar) and conducted as described3 with some modifications. The […]
buffer (50 mM KH2PO4 and 1 mM MgCl2, pH 7) contained thiamine pyrophosphate (TPP) at specified concentrations, 0.25 mM 2,6-dichlorophenolindophenol (DCPIP), and 2 mg/mL porcine PDH E1. The reaction mixture was preincubated at 37 °C with the inhibitor for 30 min, then reaction was initiated by adding pyruvate to a final concentration of 50 mM. To determine the half-maximal inhibitory concentration (IC50), TPP concentration was set at 60 µM with varying inhibitor concentrations. […]
values were calculated from non-linear regression curve fitting using GraphPad Prism. […]

E. coli OGDH E1 = E. coli OGDH E1 (Escherichia coli, UniProt P0AFG3); assay: E. coli OGDH E1 inhibitory activity assay (DCPIP reduction); format: biochemical; details: compound at 200 μM, assay conditions of previous study
Sequence of E. coli OGDH E1 (P0AFG3 whole entry): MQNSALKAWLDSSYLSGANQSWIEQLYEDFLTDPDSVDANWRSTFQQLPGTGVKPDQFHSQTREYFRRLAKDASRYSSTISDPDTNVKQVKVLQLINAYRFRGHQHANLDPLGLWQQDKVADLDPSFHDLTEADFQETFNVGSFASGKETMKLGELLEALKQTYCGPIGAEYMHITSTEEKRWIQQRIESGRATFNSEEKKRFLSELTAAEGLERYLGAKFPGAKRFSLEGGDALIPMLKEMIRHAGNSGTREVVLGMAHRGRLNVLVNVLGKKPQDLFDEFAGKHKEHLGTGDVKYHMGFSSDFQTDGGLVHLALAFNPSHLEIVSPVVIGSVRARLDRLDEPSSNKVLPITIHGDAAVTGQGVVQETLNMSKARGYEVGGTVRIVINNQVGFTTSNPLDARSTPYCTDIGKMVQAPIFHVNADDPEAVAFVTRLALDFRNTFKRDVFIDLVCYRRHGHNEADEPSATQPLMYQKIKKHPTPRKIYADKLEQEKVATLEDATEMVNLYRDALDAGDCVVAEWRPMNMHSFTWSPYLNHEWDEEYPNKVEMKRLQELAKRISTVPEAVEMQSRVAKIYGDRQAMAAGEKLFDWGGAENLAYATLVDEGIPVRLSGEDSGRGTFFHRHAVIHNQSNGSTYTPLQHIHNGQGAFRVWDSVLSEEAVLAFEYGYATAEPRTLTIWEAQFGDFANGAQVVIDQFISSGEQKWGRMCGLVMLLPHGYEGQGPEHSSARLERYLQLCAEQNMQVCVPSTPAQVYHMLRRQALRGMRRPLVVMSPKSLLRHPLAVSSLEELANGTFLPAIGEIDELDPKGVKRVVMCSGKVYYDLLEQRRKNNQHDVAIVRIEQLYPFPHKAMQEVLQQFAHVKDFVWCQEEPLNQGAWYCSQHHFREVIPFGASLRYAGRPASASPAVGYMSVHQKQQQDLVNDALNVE
Method: E. coli OGDH E1 was from material donated by R. Frank. E. coli OGDH E1 activity was determined by monitoring DCPIP reduction at 600 nm using a microplate reader (CLARIOstar) and conducted as described[5] with some modifications. […] The reaction buffer (50 mM KH2PO4 and 2 mM MgCl2, pH 7) contained TPP at specified concentrations, 0.5 mM DCPIP, and 6.7 mg/mL E. coli OGDH E1. The reaction mixture was preincubated at 37 °C with the inhibitor for 60 min, and then the reaction was initiated by adding α-ketoglutarate to a final concentration of 10 mM. To determine the IC50, the TPP concentration was set at 60 μM with varying inhibitor concentrations. Specific activity was calculated using the molar extinction coefficient of DCPIP, 21 mM^–1 cm^–1.[28] The IC50 values were calculated from nonlinear regression curve fitting using GraphPad Prism.
(§1) Enzyme inhibitory activity assays – methods and results (Figures S1-4) […]
(§2) The compound […]
E. coli OGDH E1 inhibitory activity assay. E. coli OGDH E1 was from material donated by R. Frank. E. coli OGDH E1 activity was determined by monitoring DCPIP reduction at 600 nm using a microplate reader (CLARIOstar) and conducted as described3 with some modifications. The percentage inhibition of compounds against E. coli OGDH E1 was assayed at 250 μM. The reaction buffer (50 mM KH 2PO4 and 2 mM MgCl2, pH 7) contained TPP at specified concentrations, 0.5 mM DCPIP, and 6.7 mg/ml E. coli OGDH E1. The reaction mixture was preincubated at 37 °C with the inhibitor for 60 min, then reaction was initiated by adding α-ketoglutarate to a final concentration of 10 mM. To determine the IC50, TPP concentration was set at 60 µM with varying inhibitor concentrations. Specific activity was […]

[1] = PAMPA (parallel artificial membrane permeability assay); format: in vitro ADME
Method: PAMPA – methods and results (Table S2)
PAMPA was carried out in 96-well microtiter filter plates obtained from Millipore as described1 with some modifications. Each well of the filter plate was impregnated with 15 µL of 5% hexadecane dissolved in hexane (i.e. total amount of hexadecane: 0.75 µL) for at least 10 minutes in ventilated environment to allow for complete evaporation of hexane. Donor compartments were filled with 200 µL compound-containing donor solutions of compounds dissolved in 5% DMSO, phosphate buffered saline PBS) and connected to acceptor plate prefilled with buffer (5% DMSO in PBS, pH 7.4). The resulting sandwich was incubated at room temperature under gentle shaking and wrapped in wet paper towels to avoid evaporation. After 10 hours, the sandwich was disassembled and the solutions in the acceptor and donor were transferred to a disposable UV-transparent plate. UV absorption was measured at wavelengths between 220 and 340 nm using a microplate reader (CLARIOstar).
Compounds were tested at 500 µM. Calibration to determine concentration of compounds were performed with varying compound concentrations in buffer (5% DMSO in PBS).
The artificial membrane permeability is expressed as fraction absorbed (Fa%)2 or log Pe (log of the effective permeability)1. LogD values at pH 7.4 were calculated using MarvinSketch.
Fa% = 100 ∙CA ∙VA / CD0 ∙ VD where: CA = final drug concentration in the acceptor well (µM)
VA = volume in the acceptor well (cm3)
CD0 = Initial drug concentration in the donor well (µM)
VD = volume in the donor well (cm3) log P (cm/s) = log -ln 1-CA/Cequilibrium
S = surface area (cm2), typically 0.268 cm2
Cequilibrium = theoretical equilibrium concentration = [CD ∙VD+CA ∙VA] / [VD+VA] where: CD = final drug concentration in the donor well (µM)
CA = final drug concentration in the acceptor well (µM)
Table S2. Permeability data.
Compounds Fa (%) PAMPA log Pe (cm/s) cLogD (pH = 7.4)

[2] = Solubility in aqueous buffer / enzyme assay conditions; format: physicochemical
A. viridans PO = A. viridans PO (Aerococcus viridans, UniProt A9X9K8); assay: A. viridans PO inhibitory activity assay (quinoneimine dye); format: biochemical; details: read-out: KM(TPP)
Sequence of A. viridans PO (A9X9K8 entry or part of it): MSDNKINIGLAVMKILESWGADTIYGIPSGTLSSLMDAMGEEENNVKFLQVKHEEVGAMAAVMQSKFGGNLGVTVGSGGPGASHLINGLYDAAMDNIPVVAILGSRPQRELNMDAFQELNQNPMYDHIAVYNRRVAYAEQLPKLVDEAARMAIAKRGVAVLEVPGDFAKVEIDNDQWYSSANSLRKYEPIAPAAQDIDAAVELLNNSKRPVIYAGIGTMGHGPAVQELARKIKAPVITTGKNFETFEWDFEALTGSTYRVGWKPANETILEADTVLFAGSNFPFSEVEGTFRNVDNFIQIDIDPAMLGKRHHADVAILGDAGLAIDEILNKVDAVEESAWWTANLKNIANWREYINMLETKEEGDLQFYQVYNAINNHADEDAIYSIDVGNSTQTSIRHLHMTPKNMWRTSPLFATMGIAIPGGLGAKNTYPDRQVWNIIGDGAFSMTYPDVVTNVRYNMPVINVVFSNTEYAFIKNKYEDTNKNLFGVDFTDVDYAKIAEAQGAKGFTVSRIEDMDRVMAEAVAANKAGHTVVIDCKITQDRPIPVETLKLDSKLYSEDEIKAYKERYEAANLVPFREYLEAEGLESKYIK
Method: A. viridans PO and horseradish peroxidase were purchased from Sigma. A. viridans PO activity was determined by monitoring appearance of quinoneimine dye at 550 nm using a microplate reader (CLARIOstar) and conducted as described[5] with some modifications. […] The reaction buffer (50 mM KH2PO4 and 10 mM MgCl2, pH 5.9) contained TPP at specified concentrations, 10 μM flavin adenine dinucleotide, 0.15% 4-aminoantipyrine, 0.3% N-ethyl-N-(2-hydroxy-3-sulfopropyl)-m-toluidine (EHSPT), 50 μg/mL horseradish peroxidase, and 0.35 U/mL A. viridans PO. The reaction mixture was preincubated at 37 °C with inhibitor for 30 min, and then the reaction was initiated by adding pyruvate to a final concentration of 50 mM. To determine the IC50, TPP concentration was set at 60 μM with varying inhibitor concentrations. One unit of PO activity is defined as the production of 1 μmol of hydrogen peroxide per minute. The IC50 values were calculated from nonlinear regression curve fitting using GraphPad Prism.
as §1, §2
A. viridans PO inhibitory activity assay. A. viridans PO and horseradish peroxidase were purchased from Sigma. A. viridans PO activity was determined by monitoring appearance of quinoneimine dye at 550 nm using a microplate reader (CLARIOstar) and conducted as described3 with some modifications. […]
buffer (50 mM KH2PO4 and 10 mM MgCl2, pH 5.9) contained TPP at specified concentrations, 10 µM flavin adenine dinucleotide (FAD), 0.15% 4-aminoantipyrine, 0.3% N-ethyl-N-(2-hydroxy-3-sulfopropyl)-m-toluidine (EHSPT), 50 µg/mL horseradish peroxidase and 0.35 U/mL A. viridans PO. The reaction mixture was preincubated at 37 °C with inhibitor for 30 min, then reaction was initiated by adding pyruvate to a final concentration of 50 mM. To determine the IC50, TPP concentration was set was set at 60 µM with varying inhibitor concentrations. One unit of PO activity is defined as the production of 1 μmol of hydrogen peroxide per minute. The IC 50 values were calculated from non-linear regression curve fitting using GraphPad Prism. […]

[3] = substrate: Cc1ncc(C[n+]2csc(CCO[P@](=O)(O)OP(=O)(O)O)c2C)c(N)n1; assay: S. cerevisiae PDC inhibitory activity assay (DCPIP reduction); format: biochemical, Saccharomyces cerevisiae; details: 37.0 °C
Method: S. cerevisiae PDC was purchased from Sigma. S. cerevisiae PDC activity was determined by monitoring DCPIP reduction at 600 nm using a microplate reader (CLARIOstar) and conducted as described[5] with some modifications. […] The reaction buffer (50 mM KH2PO4 and 1 mM MgCl2, pH 7) contained TPP at specified concentrations, 0.27 mM DCPIP, and 0.15 mg/mL S. cerevisiae PDC. The reaction mixture was preincubated at 37 °C with the inhibitor for 60 min, and then the reaction was initiated by adding pyruvate to a final concentration of 70 mM. […] Specific activity was calculated using the molar extinction coefficient of DCPIP, 21 mM^–1 cm^–1.[28] The IC50 values were calculated from nonlinear regression curve fitting using GraphPad Prism.
as §1, §2
S. cerevisiae PDC inhibitory activity assay. S. cerevisiae PDC was purchased from Sigma. S. cerevisiae PDC activity was determined by monitoring DCPIP reduction at 600 nm using a microplate reader (CLARIOstar) and conducted as described3 with some modifications. The percentage inhibition of compounds against S. cerevisiae PDC was assayed at 750 μM. The reaction buffer (50 mM KH 2PO4 and 1 mM MgCl2, pH 7) contained TPP at specified concentrations, 0.27 mM DCPIP, and 0.15 mg/ml S. cerevisiae PDC. […]
calculated from non-linear regression curve fitting using GraphPad Prism. […]

In the case of `CCC(CC)COC(=O)[C@H](C)NP(=O)(OCCc1cn(Cc2cnc(C)nc2N)nn1)Oc1ccccc1` (stereo partly drawn) [compound 12], the inhibition (Porcine PDH E1; compound at 10 μM, assay conditions of previous study) is reported as “no inhibition”, the inhibition (Porcine PDH E1; compound at 100 μM) is reported as “no inhibition” and the inhibition (E. coli OGDH E1) is reported as “no inhibition”. For the same molecule, the “membrane permeability in PAMPA (in words)” value ([1]; PAMPA) was “membrane-permeable”, the Papp at 10 h, 500 µM ([1]; PAMPA, compounds at 500 µM, 5% DMSO in PBS pH 7.4, 10 hours, room temperature, read-out: PAMPA log Pe (converted)) was 7.94 ×10⁻⁶ cm/s and the “Fa (fraction absorbed)” value ([1]; compounds at 500 µM, 5% DMSO in PBS pH 7.4, 10 hours, room temperature) was 48%. For the same molecule, the “solubility under the enzyme assay conditions” value ([2]; OGDH E1 assay, 300 μM) was “insufficiently soluble”, the solubility ([2]; PBS with 5% DMSO, aqueous with cosolvent or surfactant or cyclodextrin, kinetic from dmso stock, read-out: solubility in aqueous environments) was under 300 µM and the “solubility under the enzyme assay conditions” value ([2]; PDC assay conditions, 1300 μM) was “not sufficiently soluble”. The “solubility under the enzyme assay conditions” value ([2]; PO assay conditions, 400 μM) was “not sufficiently soluble”.

`Cc1ncc(C[n+]2csc(CCO[P@](=O)(O)OP(=O)(O)O)c2C)c(N)n1` [TPP, thiamine pyrophosphate] gave a Km (A. viridans PO) of 5 µM.

B1: S. cerevisiae PDC (Saccharomyces cerevisiae S288C) (protein)
chain: SEITLGKYLFERLKQVNVNTVFGLPGDFNLSLLDKIYEVEGMRWAGNANELNAAYAADGYARIKGMSCIITTFGVGELSALNGIAGSYAEHVGVLHVVGVPSISAQAKQLLLHHTLGNGDFTVFHRMSANISETTAMITDIATAPAEIDRCIRTTYVTQRPVYLGLPANLVDLNVPAKLLQTPIDMSLKPNDAESEKEVIDTILALVKDAKNPVILADACCSRHDVKAETKKLIDLTQFPAFVTPMGKGSIDEQHPRYGGVYVGTLSKPEVKEAVESADLILSVGALLSDFNTGSFSYSYKTKNIVEFHSDHMKIRNATFPGVQMKFVLQKLLTTIADAAKGYKPVAVPARTPANAAVPASTPLKQEWMWNQLGNFLQEGDVVIAETGTSAFGINQTTFPNNTYGISQVLWGSIGFTTGATLGAAFAAEEIDPKKRVILFIGDGSLQLTVQEISTMIRWGLKPYLFVLNNDGYTIEKLIHGPKAQYNEIQGWDHLSLLPTFGAKDYETHRVATTGEWDKLTQDKSFNDNSKIRMIEIMLPVFDAPQNLVEQAKLTAATNAKQ
notes: purchased Sigma
Molecule B1 has a Km [3] of 15 µM.
